Data as given in publication PMC5201331, “Subchronic Toxicities of HZ1006, a Hydroxamate-Based Histone Deacetylase Inhibitor, in Beagle Dogs and Sprague-Dawley Rats” (International Journal of Environmental Research and Public …, 2016).

Experiments:
[1] = Subchronic toxicity test in Beagle dogs: overall (NOAEL, urinalysis, ECG); format: in vivo; conditions: both sexes, beagle, dog, in vivo, daily oral administration, 28 days, read-out: NOAEL (No Observed Adverse Effect Level)
Description: (§1) HZ1006 was administered orally to dogs (four/sex/group) at doses of 80, 40, 20, 5 and 0 (control) mg/kg/day, and the dosage volume was 2 mL/kg. The dogs received test doses with the exact amounts on a weekly basis based on current body weights. […] The other dogs in the above groups were dissected on the planned days. For the other groups, half of the dogs were anatomized on d28 and the remaining half on d42.
(§2) Clinical symptoms and mortality were examined at least twice daily during the 42-day period, which included any changes in reaction to treatment, behavior, illness, food consumption, and body weight. Breathing rates, rectal temperature and pupil changes in the Beagle dogs were assessed once every 2 weeks.
(§3) The parameters of the dogs’ ECG included the Heart rate, Time at R, P Duration, P-R interval, T Duration, QRS Durations, Q-T Intervals and ST Segment, which were examined by an ECG6511 ECG instrument (manufactured by Shanghai Kohden Medical Electronic Instrument Corp., Shanghai, China) on d0 (twice), d14, d28 and d42 using the II limb lead method.
(§4) A Micro AUTION MA-4260 Autoanalyzer from Arkray Global Business, Inc. (kyoto, Japan), was used to analyze the animal urine samples. Parameters such as pH, specific gravity, nitrites, leukocytes, glucose, protein, urobilinogen, ketones, occult blood, bilirubin, and hemoglobin were tested.

Beagle dogs [2] = test: as above; format: in vivo
Description: as §1, §2, §3, §4

SD rats [3] = test: Subchronic toxicity test in SD rats: clinical observation, body weight; format: in vivo; conditions: for body weight reduced compared with the control group: male rats, 120 mg/kg oral daily
Description: (§5) The rats that were judged suitable for the subchronic toxicity study were randomly divided into four groups (10 rats/sex/group). The rats received the test sample by gavage once daily for 28 days. HZ1006 was administered to the rats at doses of 120, 60, 20 and 0 (control) mg/kg, and the dosage volume was 5 mL/kg. Half of the 80 rats (half male and half female) were selected randomly according to body weight and dissected at d28. The remaining rats were dissected at d42.
as §2

[4] = Subchronic toxicity test in SD rats: overall (NOAEL, urinalysis, bone marrow, histopathology); format: in vivo, Sprague-Dawley (SD) rats; conditions: both sexes, Sprague-Dawley, rat, in vivo, daily oral administration, read-out: NOAEL (No Observed Adverse Effect Level)
Description: as §5, §4
(§6) Bone marrow samples were obtained according to the methods reported previously. We classified the bone marrow cells by immersion objective. […]

SD rats [5] = test: as above; format: in vivo, Sprague-Dawley (SD) rats; conditions: daily oral administration, 28 days
Description: as §5, §4, §6

Beagle dogs [6] = test: Subchronic toxicity test in Beagle dogs: organ weights; format: in vivo
Description: as §1
After euthanasia, the following organs or tissues were isolated from the dogs and rats: skin, abnormal lesions, spleen, mammary glands, jejunum, pancreas, ileum, duodenum, stomach, colon, cecum, lymph nodes, mesenteric salivary glands, liver, submandibular lymph nodes, thymus, sternum, lungs, heart, esophagus, trachea, tongue, thyroid with parathyroid gland, sciatic nerve, aorta, femurs, skeletal muscle, pituitary gland, brain, kidneys, eyes, urinary bladder, adrenal glands, uterus, ovaries, testes, epididymis and prostate. The weights of the animal organs, such as the liver, spleen, heart, thymus, brain, lungs, adrenal glands, kidneys, uterus, ovaries, epididymis and testes, were tested using an electronic balance. The organs or tissues were fixed using 10% neutral buffered formalin and were then gradient dehydrated, embedded, sectioned, and stained with routine hematoxylin-eosin prior to histopathological observations.

[7] = dog ♂5 (80 mg/kg/day oral), d28
[8] = dog ♂23 (40 mg/kg/day oral), d28
[9] = dogs, 5 mg/kg/day oral, d42 (recovery)
[10] = dogs, 20 mg/kg/day oral, d42 (recovery)
[11] = dogs, 40 mg/kg/day oral, d42 (recovery)
[12] = dogs, 80 mg/kg/day oral, d42 (recovery)

CCCCCCCNc1cc(/C=C/C(=O)NO)ccc1OCCN(CC)CC [HZ1006]
NOAEL at 28 days [1]: 5 mg/kg | ECG examination (Beagle dogs [2]; 5-80 mg/kg/day oral): no dose-related changes | urinalysis (Beagle dogs [2]; 5-80 mg/kg/day oral): no dose-related changes | minimum toxic dose (Beagle dogs [2]; daily oral administration, 28 days): 20 mg/kg | body weight reduced compared with the control group (SD rats [3]; week 4): 8% | body weight reduced compared with the control group (SD rats [3]; week 5): 15% | survival (SD rats [3]; rats, 20-120 mg/kg oral daily, 28 days + 14-day recovery): All rats survived until the scheduled necropsies | NOAEL at 28 days [4]: 60 mg/kg | minimum toxic dose (SD rats [5]): 120 mg/kg | Lung absolute weight (Beagle dogs [6]; [7]): 135.9 g | Lung relative weight (Beagle dogs [6]; [7]): 13.39 | Lung absolute weight (Beagle dogs [6]; [8]): 109.8 g | Lung relative weight (Beagle dogs [6]; [8]): 12.34 | Lung absolute weight (Beagle dogs [6]; dogs, 5 mg/kg/day oral, d28): 72.7 ± 8.2 g | Lung relative weight (Beagle dogs [6]; dogs, 5 mg/kg/day oral, d28): 6.90 ± 0.90 | Testis absolute weight (Beagle dogs [6]; dogs, 5 mg/kg/day oral, d28): 13.550 ± 0.494 g | Testis relative weight (Beagle dogs [6]; dogs, 5 mg/kg/day oral, d28): 1.23 ± 0.03 | Testis absolute weight (Beagle dogs [6]; [9]): 14.050 ± 0.212 g | Testis relative weight (Beagle dogs [6]; [9]): 1.45 ± 0.04 | Lung absolute weight (Beagle dogs [6]; dogs, 20 mg/kg/day oral, d28): 71.4 ± 12.6 g | Lung relative weight (Beagle dogs [6]; dogs, 20 mg/kg/day oral, d28): 6.96 ± 1.02 | Testis absolute weight (Beagle dogs [6]; dogs, 20 mg/kg/day oral, d28): 13.953 ± 0.081 g | Testis relative weight (Beagle dogs [6]; dogs, 20 mg/kg/day oral, d28): 1.31 ± 0.26 | Lung absolute weight (Beagle dogs [6]; [10]): 74.0 ± 8.8 g | Lung relative weight (Beagle dogs [6]; [10]): 7.37 ± 0.67 | Testis absolute weight (Beagle dogs [6]; [10]): 12.179 ± 0.518 g | Testis relative weight (Beagle dogs [6]; [10]): 1.21 ± 0.01 | Lung absolute weight (Beagle dogs [6]; dogs, 40 mg/kg/day oral, d28): 92.4 ± 15.4 g | Lung relative weight (Beagle dogs [6]; dogs, 40 mg/kg/day oral, d28): 9.87 ± 2.14 | Testis absolute weight (Beagle dogs [6]; dogs, 40 mg/kg/day oral, d28): 6.631 ± 2.855 g | Testis relative weight (Beagle dogs [6]; dogs, 40 mg/kg/day oral, d28): 0.69 ± 0.24 | Lung absolute weight (Beagle dogs [6]; [11]): 70.4 ± 5.0 g | Lung relative weight (Beagle dogs [6]; [11]): 7.10 ± 1.13 | Testis absolute weight (Beagle dogs [6]; [11]): 9.400 ± 0.063 g | Testis relative weight (Beagle dogs [6]; [11]): 0.78 ± 0.21 | Lung absolute weight (Beagle dogs [6]; dogs, 80 mg/kg/day oral, d28): 95.8 ± 35.3 g | Lung relative weight (Beagle dogs [6]; dogs, 80 mg/kg/day oral, d28): 9.87 ± 3.27 | Testis absolute weight (Beagle dogs [6]; dogs, 80 mg/kg/day oral, d28): 5.660 ± 1.608 g | Testis relative weight (Beagle dogs [6]; dogs, 80 mg/kg/day oral, d28): 0.61 ± 0.23 | Lung absolute weight (Beagle dogs [6]; [12]): 82.9 ± 6.8 g | Lung relative weight (Beagle dogs [6]; [12]): 8.49 ± 0.95 | Testis absolute weight (Beagle dogs [6]; [12]): 6.017 ± 2.937 g | Testis relative weight (Beagle dogs [6]; [12]): 0.63 ± 0.31
